Measurements from patent US20200165225A1, “BACE1 INHIBITORS FOR TREATMENT OF ALZHEIMER'S DISEASE” (NantBio, Inc., priority 2017, published 2020).
pIC50: −log10 of the molar value.

Target: BACE-1 (Homo sapiens, UniProt P56817)
Assay: Inhibition of BACE cleavage of a P5-P5′ fluorescent peptide substrate containing the Swedish mutation cleavage site
Assay type: biochemical
Details: fluorogenic P5-P5′ BACE-1 substrate; 30 minutes preincubation at room temperature; signal read every 30 minutes at 25° C. for 2 hr
Procedure: The compounds were evaluated for inhibition of BACE cleavage of a P5-P5′ fluorescent peptide substrate containing the Swedish mutation cleavage site. In detail, 4 μL of assay buffer was added to each well, followed by 2 μL of BACE-1 diluted in assay buffer to 7.5 ng/uL. Then, 2 μL of compound, at concentrations along an 11 pt. two-fold dilution series starting at 10 uM, or 0.5 uM, were added to the appropriated wells and incubated for 30 minutes at room temperature. For all dilutions of inhibitor, the compound stock solutions of 10 mM in DMSO were diluted to 50 uM in water; subsequent dilutions were in 0.5% DMSO. Afterwards, 2 μL of fluorogenic P5-P5′ BACE-1 substrate, diluted to 50 μM in assay buffer, were added to each well, after which the signal generated was read every 30 minutes at 25° C. for 2 hr.

Sequence of BACE-1 (P56817 46-501): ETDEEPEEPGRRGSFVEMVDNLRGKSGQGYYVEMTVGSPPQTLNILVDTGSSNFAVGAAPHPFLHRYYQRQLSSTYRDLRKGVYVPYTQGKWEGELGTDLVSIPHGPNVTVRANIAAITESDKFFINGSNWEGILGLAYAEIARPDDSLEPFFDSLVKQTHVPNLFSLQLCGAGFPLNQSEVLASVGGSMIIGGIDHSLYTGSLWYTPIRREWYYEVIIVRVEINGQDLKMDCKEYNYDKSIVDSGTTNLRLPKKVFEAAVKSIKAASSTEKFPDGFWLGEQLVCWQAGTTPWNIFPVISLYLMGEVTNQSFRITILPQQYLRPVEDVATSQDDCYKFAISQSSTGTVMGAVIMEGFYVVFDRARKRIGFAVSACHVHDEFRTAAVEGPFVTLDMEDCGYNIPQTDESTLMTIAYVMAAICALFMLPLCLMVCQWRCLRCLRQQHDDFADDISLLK

Row | pIC50 | SMILES
1 | 6.03 | CN1C(=O)C(c2ccc(C(F)F)nc2)(c2cccc(-c3cncnc3)c2)N=C1N (centres unmarked) [Compound 6]
2 | 6.77 | CN1C(=O)C(c2cccc(-c3cncnc3)c2)(c2cccc(C(F)F)c2)N=C1N (centres unmarked) [Compound 8]
3 | 7.52 | CN1C(=O)C(c2cccc(-c3cncnc3)c2)(c2ccnc(C(F)F)c2)N=C1N (centres unmarked) [Compound 1]
4 | 6.30 | CN1C(=O)C(c2cccc(-c3cncnc3)c2)(c2cccc(C(F)F)n2)N=C1N (centres unmarked) [Compound 7]
5 | 5.10 | CN1C(=O)C(c2cccc(-c3cncnc3)c2)(c2cccc(C(F)(F)F)n2)N=C1N (centres unmarked) [Compound 5]
6 | 7.15 | CN1C(=O)C(c2cccc(-c3cncnc3)c2)(c2ccnc(C(F)(F)F)c2)N=C1N (centres unmarked) [Compound 2]
7 | 6.01 | CN1C(=O)C(c2ccc(C(F)(F)F)nc2)(c2cccc(-c3cncnc3)c2)N=C1N (centres unmarked) [Compound 4]
8 | 5.01 | Cc1cc(C2(c3ccnc(C(F)(F)F)c3)N=C(N)N(C)C2=O)ccc1OC(F)F (centres unmarked) [Compound 3]
